Biological target: fully phosphorylated, active Mouse ERK2 protein (Mus musculus (Mouse), UniProt P63085)
Test: Active ERK2 (aERK) IMAP assay
Format: biochemical
Details: IMAP fluorescence polarization; 30 μM ATP; 30 minute pre-incubation
Procedure: 14 μl of kinase buffer (10 mM Tris.HCl pH 7.2, 10 mM MgCl2, 0.01% Tween-20, 1 mM DTT) containing 0.4 ng unphosphorylated Mouse ERK2 protein was added to each well of a black 384-well assay plate. […] DMSO concentration during initial incubation is 6.7%. […] DMSO concentration during ERK activation was 4%. After one hour, reactions were terminated by addition of 60 μl IMAP detections beads in binding buffer (Molecular Devices). Binding was allowed to equilibrate for 30 minutes before reading the plate on an LJL Analyst Fluorescence Polarization plate reader.
Active ERK2 (aERK) Assay:
Activated ERK2 activity was also determined in the IMAP assay format using the procedure outlined above. […] Reactions proceeded for 30 minutes before termination by addition of 60 μl IMAP detection beads in binding buffer. Plates were read as above after 30 minute binding equilibration.

Chain of fully phosphorylated, active Mouse ERK2 protein (P63085 whole entry): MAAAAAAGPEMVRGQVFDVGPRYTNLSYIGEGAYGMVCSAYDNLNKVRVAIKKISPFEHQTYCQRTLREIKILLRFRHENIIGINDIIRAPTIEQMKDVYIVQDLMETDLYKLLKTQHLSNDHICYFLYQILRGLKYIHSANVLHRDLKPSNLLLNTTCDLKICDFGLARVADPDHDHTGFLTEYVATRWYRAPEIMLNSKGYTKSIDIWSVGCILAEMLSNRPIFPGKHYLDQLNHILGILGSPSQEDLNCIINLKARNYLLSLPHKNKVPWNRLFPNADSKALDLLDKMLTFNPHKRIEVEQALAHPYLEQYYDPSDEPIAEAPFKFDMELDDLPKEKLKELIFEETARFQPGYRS

SMILES	IC50 [nM]
COc1cccc(F)c1C[C@@]1(O)CCC[C@@H](NC(=O)c2ccc3[nH]nc(-c4ccnc(OC(C)C)c4)c3c2)C1 [compound 25, N-[3(S)-[(2-fluoro-6-methoxyphenyl)methyl]-3-hydroxy-1(R)-cyclohexyl]-3-[2-(1-methylethoxy)-4-pyridinyl]-1H-indazole-5-carboxamide]	333
Cc1cc(-c2n[nH]c3ccc(C(=O)NC4CCCC(Oc5ccc(F)cc5F)C4)cc23)ccn1 (single isomer, unassigned) [compound 38, N-[3-(2,4-difluorophenoxy)cyclohexyl]-3-(2-methyl-4-pyridinyl)-1H-indazole-5-carboxamide]	476
Cc1cc(-c2n[nH]c3ccc(C(=O)N[C@@H]4CCC[C@](O)(Cn5c(C)nc6cnccc65)C4)cc23)ccn1 (relative stereo) [compound 76, N-[trans-3-hydroxy-3-[(2-methyl-1H-imidazo[4,5-c]pyridin-1-yl)methyl]cyclohexyl]-3-(2-methyl-4-pyridinyl)-1H-indazole-5-carboxamide]	136
Cc1cc(-c2n[nH]c3ccc(C(=O)NC4CCCC(CO)(Oc5cccc(F)c5)C4)cc23)ccn1 (single isomer, unassigned) [compound 43, N-[3-(3-fluorophenoxy)-3-(hydroxymethyl)cyclohexyl]-3-(2-methyl-4-pyridinyl)-1H-indazole-5-carboxamide]	13.4
Cc1cc(-c2n[nH]c3ccc(C(=O)N[C@@H]4CCC[C@@](O)(Cn5c(=O)ccc6ccccc65)C4)cc23)ccn1 (relative stereo) [compound 93, N-[cis-3-hydroxy-3-[(2-oxo-1(2h)-quinolinyl)methyl]cyclohex-yl]-3-(2-methyl-4-pyridinyl)-1H-indazole-5-carboxamide]	165
Cn1cc2cc(-c3n[nH]c4ccc(C(=O)N[C@@H]5CCC[C@](O)(Cn6ccnc6)C5)cc34)ccc2n1 (relative stereo) [compound 58, N-[trans-3-hydroxy-3-(1H-imidazol-1-ylmethyl)cyclohexyl]-3-(2-methyl-2H-indazol-5-yl)-1H-indazole-5-carboxamide]	62
COC1(Cc2ccccc2F)CCCC(NC(=O)c2ccc3[nH]nc(-c4ccnc(C)c4)c3c2)C1 (centres unmarked) [compound 39, N-[3-[(2-fluorophenyl)methyl]-3-methoxycyclohexyl]-3-(2-methyl-4-pyridinyl)-1H-indazole-5-carboxamide]	28.5
O=C(N[C@@H]1CCC[C@](O)(Cc2ccccc2F)C1)c1ccc2[nH]nc(-c3ccc4nccn4c3)c2c1 [compound 15, N-[3(S)-[(2-fluorophenyl)methyl]-3-hydroxy-1(R)-cyclohexyl]-3-imidazo[1,2-a]pyridin-6-yl-1H-indazole-5-carboxamide]	8.6
Cc1cc(-c2n[nH]c3ccc(C(=O)NC4CCCC(Oc5ccccc5F)C4)cc23)ccn1 (single isomer, unassigned) [compound 27, N-[3-(2-fluorophenoxy)cyclohexyl]-3-(2-methyl-4-pyridinyl)-1H-indazole-5-carboxamidem]	61
Cc1cc(-c2n[nH]c3ccc(C(=O)N[C@@H]4CCC[C@@](O)(Cn5ncc6ccncc65)C4)cc23)ccn1 (relative stereo) [compound 80, N-[cis-3-hydroxy-3-(1H-pyrazolo[3,4-c]pyridin-1-ylmethyl)cyclohexyl]-3-(2-methyl-4-pyridinyl)-1H-indazole-5-carboxamide]	35.1
Cc1cc(-c2n[nH]c3ccc(C(=O)NN4CCCC(Oc5ccccc5F)C4)cc23)ccn1 (centres unmarked) [compound 142, N-[3-(2-fluorophenoxy)-1-piperidinyl]-3-(2-methyl-4-pyridinyl)-1H-indazole-5-carboxamide]	153
Cc1cc(-c2n[nH]c3ccc(C(=O)N[C@@H]4CCC[C@@](O)(Cn5cc6cccnc6n5)C4)cc23)ccn1 (relative stereo) [compound 78, N-[cis-3-hydroxy-3-(2H-pyrazolo[3,4-b]pyridin-2-ylmethyl)cyclohexyl]-3-(2-methyl-4-pyridinyl)-1H-indazole-5-carboxamide]	591
Cc1cc(-c2n[nH]c3ccc(C(=O)N[C@@H]4CCC[C@@](O)(Cn5ncccc5=O)C4)cc23)ccn1 (relative stereo) [compound 84, N-[cis-3-hydroxy-3-[(6-oxo-1(6h)-pyridazinyl)methyl]cyclohex-yl]-3-(2-methyl-4-pyridinyl)-1H-indazole-5-carboxamide]	1000
CC(C)Oc1ccc(-c2n[nH]c3ccc(C(=O)N[C@@H]4CCC[C@](O)(Cc5ccccc5F)C4)cc23)cn1 [compound 17, N-[3-(S)-[(2-fluorophenyl)methyl]-3-hydroxy-1(R)-cyclohexyl]-3-[6-(1-methylethoxy)-3-pyridinyl]-1H-indazole-5-carboxamide]	44.9
Cc1cc(-c2n[nH]c3ccc(C(=O)N[C@@H]4CCC[C@@](O)(Cn5cnc6ncccc65)C4)cc23)ccn1 (relative stereo) [compound 81, N-[cis-3-hydroxy-3-(1H-imidazo[4,5-b]pyridin-1-ylmethyl)cyclohexyl]-3-(2-methyl-4-pyridinyl)-1H-indazole-5-carboxamide]	825
COCC1(Cc2ccccc2F)CCCN(NC(=O)c2ccc3[nH]nc(-c4ccnc(C)c4)c3c2)C1 (centres unmarked) [compound 149, N-[3-[(2-fluorophenyl)methyl]-3-(methoxymethyl)-1-piperidinyl]-3-(2-methyl-4-pyridinyl)-1H-indazole-5-carboxamide]	937
Cc1cc(-c2n[nH]c3ccc(C(=O)NC4CCCC(Cn5ncc6ccc(C(F)(F)F)cc65)C4)cc23)ccn1 (mixture of isomers) [compound 125, 3-(2-methyl-4-pyridinyl)-N-[cis/trans-3-[[6-(trifluoromethyl)-1H-indazol-1-yl]methyl]cyclohexyl]-1H-indazole-5-carboxamide]	1000
Cc1cc(-c2n[nH]c3ccc(C(=O)NN4CCCC(Oc5ccccc5Cl)C4)cc23)ccn1 (centres unmarked) [compound 140, N-[3-(2-chlorophenoxy)-1-piperidinyl]-3-(2-methyl-4-pyridinyl)-1H-indazole-5-carboxamide]	31.3
Cc1cc(-c2n[nH]c3ccc(C(=O)N[C@@H]4CCC[C@](O)(Cn5ncc6ccccc65)C4)cc23)ccn1 [compound 65, N-[3(R)-hydroxy-3-(1H-indazol-1-ylmethyl)-1(R)-cyclohexyl]-3-(2-methyl-4-pyridinyl)-1H-indazole-5-carboxamide]	988
Cn1cc2cc(-c3n[nH]c4ccc(C(=O)N[C@@H]5CCC[C@@](O)(Cn6ccnc6)C5)cc34)ccc2n1 (relative stereo) [compound 57, N-[cis-3-hydroxy-3-(1H-imidazol-1-ylmethyl)cyclohexyl]-3-(2-methyl-2H-indazol-5-yl)-1H-indazole-5-carboxamide]	37.8
Cn1cc2cc(-c3n[nH]c4ccc(C(=O)N[C@@H]5CCC[C@](O)(Cc6c(F)cccc6F)C5)cc34)ccc2n1 [compound 19, N-[3(S)-[(2,6-difluorophenyl)methyl]-3-hydroxy-1(R)-cyclohexyl]-3-(2-methyl-2H-indazol-5-yl)-1H-indazole-5-carboxamide]	12.1
Cc1cc(-c2n[nH]c3ccc(C(=O)NC4CCCC(Cn5c(C)nc6cnccc65)C4)cc23)ccn1 (centres unmarked) [compound 116, N-[3-[(2-methyl-1H-imidazo[4,5-c]pyridiN-1-yl)methyl]cyclohexyl]-3-(2-methyl-4-pyridinyl)-1H-indazole-5-carboxamide]	1000
Cc1cc(-c2n[nH]c3ccc(C(=O)NC4CCCC(Oc5ccccc5Cl)C4)cc23)ccn1 (single isomer, unassigned) [compound 35, N-[3-(2-chlorophenoxy)cyclohexyl]-3-(2-methyl-4-pyridinyl)-1H-indazole-5-carboxamide]	192
COC1(Cc2ccccc2F)CCCC(NC(=O)c2ccc3[nH]nc(-c4ccnc(C)c4)c3c2)C1 (centres unmarked) [compound 40, N-[3-[(2-fluorophenyl)methyl]-3-methoxycyclohexyl]-3-(2-methyl-4-pyridinyl)-1H-indazole-5-carboxamide]	205
Cc1cc(-c2n[nH]c3ccc(C(=O)NC4CCCC(Oc5ccccc5Cl)C4)cc23)ccn1 (single isomer, unassigned) [compound 29, N-[3-(2-chlorophenoxy)cyclohexyl]-3-(2-methyl-4-pyridinyl)-1H-indazole-5-carboxamide]	1000
Cc1cc(-c2n[nH]c3ccc(C(=O)NC4CCCC(O)(C(O)c5ccccc5)C4)cc23)ccn1 (centres unmarked) [compound 50, N-[3-hydroxy-3-(hydroxyphenylmethyl)cyclohex-yl]-3-(2-methyl-4-pyridinyl)-1H-indazole-5-carboxamide (diasterimer 2)]	47.5
Cc1cc(-c2n[nH]c3ccc(C(=O)N[C@@H]4CCC[C@@](O)(Cn5cnc6cccnc65)C4)cc23)ccn1 (relative stereo) [compound 82, N-[cis-3-hydroxy-3-(3H-imidazo[4,5-b]pyridin-3-ylmethyl)cyclohexyl]-3-(2-methyl-4-pyridinyl)-1H-indazole-5-carboxamide]	97.6
Cc1cc(-c2n[nH]c3ccc(C(=O)N[C@@H]4CCC[C@](O)(Cn5cnc6cccnc65)C4)cc23)ccn1 (relative stereo) [compound 72, N-[trans-3-hydroxy-3-(3H-imidazo[4,5-b]pyridin-3-ylmethyl)cyclohexyl]-3-(2-methyl-4-pyridinyl)-1H-indazole-5-carboxamide]	537
O=C(N[C@@H]1CCC[C@](O)(Cc2c(F)cccc2F)C1)c1ccc2[nH]nc(-c3ccc4ncsc4c3)c2c1 [compound 20, 3-(6-benzothiazolyl)-N-[3(S)-[(2,6-difluorophenyl)methyl]-3-hydroxy-1(R)-cyclohexyl]-1H-indazole-5-carboxamide]	33.9

Source: patent publication US9351965B2, “Indazole derivatives useful as ERK inhibitors” (Merck Sharp & Dohme Corp., priority 2010, dated 2016)
